US11040976B2, “Substrate selective inhibitors of insulin-degrading enzyme (IDE) and uses thereof” (President and Fellows of Harvard College, priority 2015, dated 2021)

What was measured:
[1] = test system: human IDE Ile362Gln and Gly362Gln; assay: Activity assay of mutant human IDE variants Ile362Gln and Gly362Gln with IDE inhibitors; assay type: biochemical
Source text: (§1) N-His6-tagged human IDE42-1019 construct was introduced in the expression plasmid pTrcHis-A (Invitrogen) using primers for uracil-specific excision reactions (USER) by Taq (NEB) and Pfu polymerases (PfuTurbo CX®, Agilent), as described in more detail in Maianti et al. (Nature (2014), 511, 94-98), which is incorporated by reference herein. The IDE gene was amplified with the primers 5′-[…]-dU-[…] (SEQ ID NO: 26) and 5′-[…] G-dU-[…] (SEQ ID NO: 27) (underlined sequences represent overhangs, and italics highlight the PCR priming sequence). Similarly, the pTrcHis-A vector was amplified for USER cloning with the primers 5′-[…]-dU-[…] (SEQ ID NO: 28) and 5′-[…]-dU-[…] (SEQ ID NO: 29). Mutant IDE constructs were generated by amplifying the full vector construct with USER cloning primers introducing a mutant overhang (see Table E6).
(§2) Recombinant His6-tagged proteins were purified by Ni(II)-affinity chromatography (IMAC sepharose beads, GE Healthcare®) according to the manufacturer's instructions. The cell pellets were re-suspended in pH 8.0 buffer containing 50 mM phosphate, 300 mM NaCl, 10 mM imidazole, 1% Triton X-100 and 1 mM tris(2-carboxyethyl)phosphine hydrochloride (TCEP), and were lysed by probe sonication for 4 minutes at <4° C., followed by clearing of cell debris by centrifugation at 10,000 g for 25 minutes at 4° C. […]

human IDE Ala479Leu = biological target: T1, human IDE Ala479Leu (Homo sapiens, UniProt P14735, A479L); assay: Activity assay of mutant human IDE variant A479L with IDE inhibitors; assay type: biochemical
T1 construct: N-His6-tagged human IDE42-1019 construct was introduced in the expression plasmid pTrcHis-A; His6 (N); made in house; host or cells: E. coli Rosetta 2 (DE3) pLysS
T1 sequence (P14735 42-1019 A479L): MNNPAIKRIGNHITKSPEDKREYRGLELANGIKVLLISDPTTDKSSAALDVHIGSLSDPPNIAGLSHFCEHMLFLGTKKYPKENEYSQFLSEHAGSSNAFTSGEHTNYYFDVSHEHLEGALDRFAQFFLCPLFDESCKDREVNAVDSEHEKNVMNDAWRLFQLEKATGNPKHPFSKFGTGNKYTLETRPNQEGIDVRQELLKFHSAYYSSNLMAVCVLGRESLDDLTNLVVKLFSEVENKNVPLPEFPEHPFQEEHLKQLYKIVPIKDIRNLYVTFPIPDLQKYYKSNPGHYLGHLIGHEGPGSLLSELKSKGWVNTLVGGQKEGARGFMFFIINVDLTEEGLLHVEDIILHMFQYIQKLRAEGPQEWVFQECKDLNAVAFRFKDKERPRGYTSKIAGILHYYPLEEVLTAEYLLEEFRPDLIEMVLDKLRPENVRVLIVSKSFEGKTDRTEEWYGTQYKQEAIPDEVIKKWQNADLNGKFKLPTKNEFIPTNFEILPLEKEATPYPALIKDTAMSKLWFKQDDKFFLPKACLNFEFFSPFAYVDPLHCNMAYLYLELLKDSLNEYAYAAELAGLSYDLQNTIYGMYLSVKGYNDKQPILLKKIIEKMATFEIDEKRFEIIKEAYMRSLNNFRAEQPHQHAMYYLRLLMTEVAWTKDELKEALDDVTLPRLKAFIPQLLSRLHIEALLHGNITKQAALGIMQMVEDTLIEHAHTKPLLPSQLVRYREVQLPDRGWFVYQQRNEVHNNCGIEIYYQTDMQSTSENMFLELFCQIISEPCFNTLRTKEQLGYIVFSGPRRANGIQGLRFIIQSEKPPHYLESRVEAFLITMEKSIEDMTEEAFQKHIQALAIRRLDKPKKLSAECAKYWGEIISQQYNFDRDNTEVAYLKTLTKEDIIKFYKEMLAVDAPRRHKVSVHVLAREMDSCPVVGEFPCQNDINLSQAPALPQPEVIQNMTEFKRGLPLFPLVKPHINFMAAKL
Source text: as §1, §2

Compound | effect of mutations Ile362Gln and Gly362Gln on inhibition potency [1] | effect of Ala479Leu mutation on inhibition of IDE (human IDE Ala479Leu)
Cc1cccc(-c2ccc([C@@H]3[C@@H](CO)N4CCCCN(S(=O)(=O)c5ccccc5C)C[C@@H]34)cc2)c1 [compound 297] | reduce the inhibition potency | –
NCCCC[C@@H]1NC(=O)/C=C/C(=O)N[C@H](C(N)=O)CCCCNC(=O)[C@@H](Cc2ccc(C(=O)c3ccccc3)cc2)NC(=O)[C@H](CC2CCCCC2)NC1=O [6bK, reference compound] | – | blocks 6bK from inhibiting IDE
